According to patent publication US20230118688A1, “1H-PYRAZOLO[4,3-d]PYRIMIDINE COMPOUNDS AS TOLL-LIKE RECEPTOR 7 (TLR7) AGONISTS” (BRISTOL-MYERS SQUIBB COMPANY, priority 2020, published 2023):
Read-outs that look alike come from different tables or passages of the source.

Assays:
[1] = target: T1, human TLR7 (Homo sapiens, UniProt Q9NYK1); test: Human TLR7 agonist activity reporter assay (HEK-Blue TLR7 cells, SEAP reporter); type: cell-based; conditions: 18 h treatment
T1 construct: host or cells: HEK-Blue TLR7 cells (engineered human embryonic kidney cells)
T1 sequence (Q9NYK1 27-1049): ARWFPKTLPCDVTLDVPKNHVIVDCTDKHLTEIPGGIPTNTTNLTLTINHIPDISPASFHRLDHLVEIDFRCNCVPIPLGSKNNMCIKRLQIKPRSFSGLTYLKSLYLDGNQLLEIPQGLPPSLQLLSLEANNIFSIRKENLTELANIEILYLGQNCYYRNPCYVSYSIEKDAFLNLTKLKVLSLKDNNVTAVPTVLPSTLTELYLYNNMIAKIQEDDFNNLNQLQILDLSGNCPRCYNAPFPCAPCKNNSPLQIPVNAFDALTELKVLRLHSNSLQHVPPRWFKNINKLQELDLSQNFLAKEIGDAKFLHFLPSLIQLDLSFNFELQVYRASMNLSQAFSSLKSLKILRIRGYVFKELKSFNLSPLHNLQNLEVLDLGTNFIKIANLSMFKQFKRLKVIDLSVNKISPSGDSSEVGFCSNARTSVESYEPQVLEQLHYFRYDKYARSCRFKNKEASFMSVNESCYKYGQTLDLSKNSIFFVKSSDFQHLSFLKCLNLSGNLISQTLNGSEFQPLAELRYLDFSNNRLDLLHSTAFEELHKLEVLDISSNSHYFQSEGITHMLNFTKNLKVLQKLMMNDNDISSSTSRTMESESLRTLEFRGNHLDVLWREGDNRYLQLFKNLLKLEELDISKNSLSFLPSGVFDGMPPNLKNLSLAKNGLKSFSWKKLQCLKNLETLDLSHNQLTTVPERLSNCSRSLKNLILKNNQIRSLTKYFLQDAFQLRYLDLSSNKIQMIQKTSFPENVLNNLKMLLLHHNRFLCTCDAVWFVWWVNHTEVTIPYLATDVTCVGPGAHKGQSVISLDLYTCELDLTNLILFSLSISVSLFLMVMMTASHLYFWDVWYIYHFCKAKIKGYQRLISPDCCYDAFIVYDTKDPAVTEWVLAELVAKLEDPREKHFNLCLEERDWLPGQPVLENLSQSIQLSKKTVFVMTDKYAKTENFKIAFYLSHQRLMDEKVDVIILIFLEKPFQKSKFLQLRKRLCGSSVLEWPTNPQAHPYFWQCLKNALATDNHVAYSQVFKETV
How it was run: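 HEK-Blue TLR7 cells (15,000/well) treated with compound for 18 h at 37 °C, 5% CO2. Secreted SEAP measured with Quanti-Blue, 30 min, OD 620 nm. EC50 taken as concentration giving half-maximal response between baseline and maximum.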

[2] = tested on: CD69; test: Induction of CD69 in human whole blood; type: cell-based; conditions: 17 h, CD69 surface staining, 100% set to 1 uM resiquimod
How it was run: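 Heparinized human whole blood, RPMI-diluted, incubated with TLR7 agonist (final 1 uM from 1 mM stock) for 17 h at 37 °C. CD69-PE surface staining with CD14/CD19 gating, fix/lysis, then flow cytometry; curves normalized with 1 uM resiquimod as 100%.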

[3] = Table A2, read-out: hTLR7 Agonism EC50
[4] = Table A2, read-out: hWB CD69 EC50
[5] = average where assay repeated, Table A1, read-out: hTLR7 Agonism EC50
[6] = average where assay repeated, Table A1, read-out: hWB CD69 EC50

Compound	EC50 [1, 3]	EC50 [2, 4]	EC50 [1, 5]	EC50 [2, 6]
CCC[C@@H](CCO)Nc1nc(N)nc2cnn(Cc3cc(CN(C)CCN(C)C)cnc3OC)c12 [Compound 170, (3S)-3-[(5-amino-1-{[5-({[2-(dimethyl-amino)ethyl](methyl)amino}-methyl)-2-methoxypyridin-3-yl]methyl}-1H-pyrazolo[4,3-d]pyrimidin-7-yl)amino]hexan-1-ol]	770 nM	170 nM	–	–
CCCCNc1nc(N)nc2cnn(Cc3cc(CN4CCCN(C)CC4)ccc3OC)c12 [Compound 131, N7-butyl-1-({2-methoxy-5-[(4-methyl-1,4-diazepan-1-yl)methyl]phenyl}methyl)-1H-pyrazolo[4,3-d] pyrimidine-5,7-diamine]	–	–	112 nM	85.9 nM
CCCCNc1nc(N)nc2cnn(Cc3cc(COC4COC4)ccc3OC)c12 [Compound 141, N7-butyl-1-({2-methoxy-5-[(oxetan-3-yloxy)me-thyl]phenyl}methyl)-1H-pyrazolo[4,3-d]pyrimidine-5,7-diamine]	–	–	498 nM	831 nM
CCCCNc1nc(N)nc2cnn(Cc3cc(COCCCO)ccc3OC)c12 [Compound 143, 3-[(3-{[5-amino-7-(butyl-amino)-1H-pyrazolo[4,3-d]pyrimidin-1-yl]methyl}-4-methoxyphenyl)-methoxy]propan-1-ol]	–	–	424 nM	725 nM
CCCCNc1nc(N)nc2cnn(Cc3cc(CN4CC(OC)C4)ccc3OC)c12 [Compound 105, N7-butyl-1-({2-methoxy-5-[(3-methoxyazetidin-1-yl)methyl]phenyl}methyl)-1H-pyrazolo[4,3-d]pyrimidine-5,7-diamine]	–	–	124 nM	90.9 nM
CCC[C@@H](CCO)Nc1nc(N)nc2cnn(Cc3cc(CNC)ncc3OC)c12 [Compound 178, (3S)-3-{[5-amino-1-({5-methoxy-2-[(methylamino)methyl]pyridin-4-yl}methyl)-1H-pyrazolo[4,3-d]pyrimidin-7-yl]amino}hexan-1-ol]	617 nM	33.9 nM	–	–
CCCCNc1nc(N)nc2cnn(Cc3cc(CN4CCN(C(=O)C5CCC5)CC4)ccc3OC)c12 [Compound 138, N7-butyl-1-({5-[(4-cyclo-butanecarbonylpiperazin-1-yl)methyl]-2-methoxy-phenyl}methyl)-1H-pyrazolo-[4,3-d]pyrimidine-5,7-diamine]	–	–	2070 nM	≥ 1000 nM
COc1ccc(CN2CC(OC)C2)cc1Cn1ncc2nc(N)nc(NCC3CC4(CC4)C3)c21 [Compound 149, 1-({2-methoxy-5-[(3-methoxyazetidin-1-yl)methyl]-phenyl}methyl)-N7-({spiro-[2.3]hexan-5-yl}methyl)-1H-pyrazolo[4,3-d]pyrimidine-5,7-diamine]	–	–	271 nM	525 nM
CCC[C@@H](CCO)Nc1nc(N)nc2cnn(Cc3cc(CN4CCN(CCO)CC4)c(F)cc3OC)c12 [Compound 168, (3S)-3-({5-amino-1-[(4-fluoro-5-{[4-(2-hydroxyethyl)piperazin-1-yl]methyl}-2-methoxyphenyl)-methyl]-1H-pyrazolo[4,3-d]pyrimidin-7-yl}amino)hexan-1-ol]	62.8 nM	39.2 nM	–	–
CCCCNc1nc(N)nc2cnn(Cc3cc(CN(C)C(=O)CCOC)ccc3OC)c12 [Compound 146, N-[(3-{[5-amino-7-(butyl-amino)-1H-pyrazolo[4,3-d]pyrimidin-1-yl]methyl}-4-methoxyphenyl)methyl]-3-methoxy-N-methylpropanamide]	–	–	499 nM	≥ 1000 nM
CCCCNc1nc(N)nc2cnn(Cc3cc(CNC4CCCC4)ccc3OC)c12 [Compound 120]	–	–	548 nM	288 nM
CCC[C@@H](CCO)Nc1nc(N)nc2cnn(Cc3cc(CN4CC(O)C4)c(F)cc3OC)c12 [Compound 166, 1-({5-[(5-amino-7-{[(3S)-1-hydroxyhexan-3-yl]amino}-1H-pyrazolo[4,3-d]pyrimidin-1-yl)methyl]-2-fluoro-4-methoxyphenyl}-methyl)azetidin-3-ol]	116 nM	34.2 nM	–	–
CCCCNc1nc(N)nc2cnn(Cc3cc(CN4CC5(C4)CN(C(=O)C4CCC4)C5)ccc3OC)c12 [Compound 125, N7-butyl-1-{[5-({6-cyclobutanecarbonyl-2,6-diazaspiro[3.3]heptan-2-yl}methyl)-2-methoxy-phenyl]methyl}-1H-pyrazolo[4,3-d]pyrimidine-5,7-diamine]	–	–	191 nM	369 nM
CCCCNc1nc(N)nc2cnn(Cc3cc(COCCC(C)(C)O)ccc3OC)c12 [Compound 144, 4-[(3-{[5-amino-7-(butyl-amino)-1H-pyrazolo[4,3-d]pyrimidin-1-yl]methyl}-4-methoxyphenyl)methoxy]-2-methylbutan-2-ol]	–	–	562 nM	≥ 1000 nM
N7-butyl-1-{[2-methoxy-5- ({octahydropyrrolo[3,4-c]- pyrrol-2-yl}methyl)phenyl]- methyl}-1H-pyrazolo[4,3- d]pyrimidine-5,7-diamine [Compound 135]	–	–	448 nM	325 nM
CCCCNc1nc(N)nc2cnn(Cc3cc(CN4CC5(COC5)C4)ccc3OC)c12 [Compound 124, N7-butyl-1-{[2-methoxy-5-({2-oxa-6-azaspiro-[3.3]heptan-6-yl}-methyl)phenyl]methyl}-1H-pyrazolo[4,3-d]pyrimidine-5,7-diamine]	–	–	190 nM	86.3 nM
CCCCNc1nc(N)nc2cnn(Cc3cc(CNC4(C)CCOCC4)ccc3OC)c12 [Compound 119, N7-butyl-1-[(2-methoxy-5-{[(4-methyloxan-4-yl)amino]methyl}phenyl)methyl]-1H-pyrazolo[4,3-d]pyrimidine-5,7-diamine]	–	–	529 nM	227 nM
COc1ccc(CNC2CCOCC2)cc1Cn1ncc2nc(N)nc(NCC3CC4(CC4)C3)c21 [Compound 150, 1-[(2-methoxy-5-{[(oxan-4-yl)amino]methyl}phenyl)-methyl]-N7-({spiro[2.3]-hexan-5-yl}methyl)-1H-pyrazolo[4,3-d]pyrimidine-5,7-diamine]	–	–	387 nM	298 nM
CCC[C@@H](CCO)Nc1nc(N)nc2c(C)nn(Cc3cc(CN4CCN(C)CC4)ccc3OC)c12 [Compound 164, (3S)-3-{[5-amino-1-({2-methoxy-5-[(4-methylpiperazin-1-yl)methyl]phenyl}methyl)-3-methyl-1H-pyrazolo[4,3-d]pyrimidin-7-yl]amino}hexan-1-ol]	–	–	48.5 nM	21.7 nM
CCCCNc1nc(N)nc2cnn(Cc3cc(CN4CC(N(C)C)C4)ccc3OC)c12 [Compound 137, N7-butyl-1-[(5-{[3-(dime-thylamino)azetidin-1-yl]-methyl}-2-methoxyphenyl)methyl]-1H-pyrazolo-[4,3-d]pyrimidine-5,7-diamine]	–	–	114 nM	28.1 nM
CCC[C@@H](CCO)Nc1nc(N)nc2cnn(Cc3cc(CNCCS(C)(=O)=O)c(F)cc3OC)c12 [Compound 173, (3S)-3-({5-amino-1-[(4-fluoro-5-{[(2-methanesulfonylethyl)amino]methyl}-2-methoxyphenyl)methyl]-1H-pyrazolo[4,3-d]pyrimidin-7-yl}amino)hexan-1-ol]	40 nM	23.2 nM	–	–
CCCCNc1nc(N)nc2cnn(Cc3cc(COC)ccc3OC)c12 [Compound 139, N7-butyl-1-{[2-methoxy-5-(methoxymethyl)phenyl]-methyl}-1H-pyrazolo[4,3-d]pyrimidine-5,7-diamine]	–	–	331 nM	894 nM
CC[C@@H](CCO)Nc1nc(N)nc2cnn(Cc3cc(CN4CCN(C)CC4)ccc3OC)c12 [Compound 163, (3S)-3-{[5-amino-1-({2-methoxy-5-[(4-methylpiperazin-1-yl)methyl]phenyl}methyl)-1H-pyrazolo[43-d]pyrimidin-7-yl]amino}pentan-l-ol]	–	–	267 nM	119 nM
CCC[C@@H](CCO)Nc1nc(N)nc2cnn(Cc3cc(CN4CCNCC4)ccc3OC)c12 [Compound 155, (3S)-3-{[5-amino-1-({2-methoxy-5-[(piperazin-1-yl)-methyl]phenyl}methyl)-1H-pyrazolo[4,3-d]pyrimidin-7-yl]amino}hexan-1-ol]	–	–	150 nM	129 nM
